One may read the Kd as the concentration at which binding is half-saturated. Higher therefore signals a looser complex.

We go through three molecules from paper PMC9309159, “Identification of heptapeptides targeting a lethal bacterial strain in septic mice through an integrative approach” (Signal Transduction and Targeted Therapy, 2022).

“Also recorded” adds a separate entry of the source. Ends that are not written are not given here. * marks the point of attachment. Biotin = O=C1N[C@H]2[C@H](CS[C@H]2CCCCC(=O)*)N1

One experiment deals with bacterial strain MSI001. Put plainly: In vitro antibacterial assay (colony counting). The format is cell-based, Escherichia coli. As to conditions: 1 × 10^3 CFU, peptide 0.25, 0.5, 1 μmol/L, 37 °C, 1-8 h, colony count, n = 3. As for the experimental part:
Fig. 6 Antimicrobial activity of the C7C-LL37 fusion peptides in vitro. a Primary structures and physical properties of the C7C and LL37 fusion peptides, including LL37, VTK-LL37, LL37-VTK, KYY-LL37 and LL37-KYY, ISS-LL37, INS-LL37. Net charge, PI and GRAVY values were acquired as described above. b Inhibitory effect of C7C-LL37 fusion peptides on bacterial growth. A C7C-LL37 fusion peptide or LL37 alone was added to the cultured bacterial strain MSI001 (1 × 10^3 CFU) at final concentrations of 0.25 μmol/L, 0.5 μmol/L and 1 μmol/L. Sterile DPBS was used as control. After incubation with the C7C-LL37 or LL37 peptides at 37 °C for different times (1-8 h), bacterial colonies were counted. n = 3. *P < 0.05, VTK-LL37 group compared to LL37 group; ^#P < 0.05, LL37-VTK group compared to LL37 group. c, d Inhibitory effect of VTK-LL37 on biofilm formation. The VTK-LL37 or LL37 peptide was added to the bacterial culture at a final concentration of 0-4 μmol/L and incubated at 37 °C for 3 days. Bacterial culture medium and the peptides were refreshed every day. The biofilm was stained with 1% crystal violet, and the precipitates were dissolved in 95% ethanol, followed by detection of absorbance at 570 nm (A570) (c). Moreover, the biofilm was observed under a microscope (d). n = 5. *P < 0.05, VTK-LL37 group compared to LL37 group […]

Another experiment has as its target DEGP protein. The experiment in a line: SPRi assay of peptide binding to DEGP protein. Further details: species or system E. coli MSI001. The following applies: control peptide immobilized on chip, value printed in picture of Fig. 8e. As for the experimental part:
(§1) Protein profiles were determined by cPCoA distance among samples and characterized by close intragroup distances among samples. b Hierarchical clustering analysis of proteins from the HEE, VTK and input groups. […] Label-free mass spectrometry was used to quantitate proteins from the HEE, VTK and input groups. Red represents high expression, while blue represents low expression. c Volcano plot of proteins from the VTK group and HEE group. […] DEGP or DEGQ protein at different concentrations (5 nmol/L, 10 nmol/L, 20 nmol/L) in solution flowed on an SPRi chip. Binding data were collected and analyzed by commercial SPRi analysis software (Plexera SPR Data Analysis Model, Plexera, USA).
(§2) To measure the binding affinity of peptides with targeted proteins, a PlexArray HT A100 (Plexera, USA) Surface Plasmon Resonance imaging (SPRi) system was used to monitor the whole procedure in real time. Briefly, a chip with a well-prepared peptide microarray was assembled with a plastic flow cell for sample loading. The operation details for the PlexArray HT were as described previously.[65] The purified protein samples were prepared at determined concentrations in PBS running buffer, while glycine-HCl buffer (10 mmol/L, pH 2.0) was used for regeneration. Binding data were collected and analyzed by SPR Data Analysis Module software (Plexera, USA). […]

Another experiment deals with DEGQ protein. Put plainly: SPRi assay of peptide binding to DEGQ protein. Further details: species or system E. coli MSI001. As to conditions: control peptide immobilized on chip, value printed in picture of Fig. 8e. How it is done:
as §1, §2

Experiment [1] deals with T1, DEGQ protein, purified (SPRi analyte) (E. coli (strain MSI001), UniProt P39099 28-455).
T1 sequence (looked up): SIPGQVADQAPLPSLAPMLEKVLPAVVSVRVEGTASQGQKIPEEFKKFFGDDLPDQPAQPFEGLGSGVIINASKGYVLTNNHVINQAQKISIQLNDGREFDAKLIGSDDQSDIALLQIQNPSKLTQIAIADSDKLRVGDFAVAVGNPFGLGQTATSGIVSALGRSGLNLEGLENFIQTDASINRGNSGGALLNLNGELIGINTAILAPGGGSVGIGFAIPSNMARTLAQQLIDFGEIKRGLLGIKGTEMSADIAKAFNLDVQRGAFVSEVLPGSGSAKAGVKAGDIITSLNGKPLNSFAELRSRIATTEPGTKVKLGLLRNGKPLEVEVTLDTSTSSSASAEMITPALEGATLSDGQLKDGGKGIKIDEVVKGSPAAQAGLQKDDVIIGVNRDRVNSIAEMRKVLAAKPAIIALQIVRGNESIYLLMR
Put plainly: SPR. As to conditions: both partners purified.

Experiment [2] deals with T2, DEGP protein, purified (SPRi analyte) (E. coli (strain MSI001), UniProt P0C0V0 27-474).
T2 sequence (looked up): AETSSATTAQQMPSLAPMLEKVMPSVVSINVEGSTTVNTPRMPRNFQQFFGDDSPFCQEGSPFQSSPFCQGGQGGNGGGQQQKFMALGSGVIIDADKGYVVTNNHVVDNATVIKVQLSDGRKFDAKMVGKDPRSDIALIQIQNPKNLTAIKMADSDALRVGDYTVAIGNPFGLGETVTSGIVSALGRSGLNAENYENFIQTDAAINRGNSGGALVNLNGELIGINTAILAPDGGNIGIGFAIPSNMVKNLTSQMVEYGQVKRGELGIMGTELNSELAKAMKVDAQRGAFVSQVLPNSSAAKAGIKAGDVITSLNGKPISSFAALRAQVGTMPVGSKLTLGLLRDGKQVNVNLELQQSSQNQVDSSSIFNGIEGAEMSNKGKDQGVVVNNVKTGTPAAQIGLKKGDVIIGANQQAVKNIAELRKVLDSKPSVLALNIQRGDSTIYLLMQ
Put plainly: SPR. The following applies: both partners purified.

“LLGDFFRKSKEKIGKEFKRIVQRIKDFLRNLVPRTESVPGVGCVTKLGSLC [LL37-VTK]”: in the experiment on bacterial strain MSI001, the “inhibitory effect on bacterial growth of MSI001” value was “inhibited MSI001 bacterial growth but also showed stronger antibiotic activity than LL37 alone in the early stage (1-3 h); also recorded: stronger bacteriostatic activity than other LL37 fusion peptides”.

For “Biotin-CHEEWLPAC (cysteine pairing not given here) [control HEE heptapeptide]”, the Kd at DEGP protein was 5250 nM; on DEGQ protein, 1000 nM.

B1: VTK heptapeptide VTKLGSL, synthesized (immobilised on the SPRi chip) (peptide)
peptide: VTKLGSL
notes: also called VTK peptide; source: synthetic peptide
Turning to B1, the values for the Kd in experiment [1] and in experiment [2] were 1.73 nM and 15.8 nM, respectively.
